Assay [1] has as its system H929 multiple myeloma tumor line. As to the kind of experiment: In vitro cytotoxicity, MTT assay (Example B, Method A). The assay is classed as cell-based. To be noted: H929 cells, 48 hours exposure, read-out: C50. Here is the method: The cytotoxicity studies were carried out on the H929 multiple myeloma tumor line.
The cells are distributed onto microplates and exposed to the test compounds for 48 hours. The cell viability is then quantified by a colorimetric assay, the Microculture Tetrazolium Assay (Carmichael et al, Cancer Res. 1987, 47, 939-942).
The results are expressed in C50 which means concentration corresponding to […] of effect/inhibition.

In assay [2] the target is Cy5-labelled Mcl1 (amino acids 171-321) C286S protein (UniProtKB Q07820) (Homo sapiens (Human), UniProt Q07820, C286S). As to the kind of experiment: Inhibition of Mcl-1 by the fluorescence quenching assay (Example A, Method B). In kind it is binding. Put shortly: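 Cy5-labelled Mcl1 171-321 C286S (1 nM) quenched by TQ5WS-labelled PUMA peptide (10, 20 or 400 nM); displacement raises fluorescence (Ex 620/Em 680 nm). Buffer 10 mM HEPES, 150 mM NaCl, 0.05% Tween 20, pH 7.4, 5% DMSO; 2 h at room temperature, 11-point curves, IC50 converted to Ki (cKi/eKi).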
Sequence of Cy5-labelled Mcl1 (amino acids 171-321) C286S protein (Q07820 171-321 C286S): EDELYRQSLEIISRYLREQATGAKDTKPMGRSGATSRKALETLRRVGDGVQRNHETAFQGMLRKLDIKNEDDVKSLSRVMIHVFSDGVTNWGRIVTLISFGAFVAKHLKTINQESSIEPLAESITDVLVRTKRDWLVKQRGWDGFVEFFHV

The next assay concerns the target Mcl-1 protein (UniProtKB Q07820) (Homo sapiens (Human), UniProt Q07820). As to the kind of experiment: Inhibition of Mcl-1 by the fluorescence polarisation assay (Example A, Method A). In kind it is binding. To be noted: fluorescence polarization assay. Put shortly: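 Protein (5 nM) and fluorescein-tagged peptide tracer (1 nM) incubated with 11-point compound series for 2 h at room temperature in HEPES/NaCl/Tween 20 buffer, pH 7.4, 5% DMSO. Displacement read as decrease in polarisation; IC50 fitted by 4-parameter logistic, converted to Ki (cKi or eKi).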
(In general: Polarisation of emitted light reports the rotation of a fluorescent probe.)

Read-outs that look alike come from different tables or passages of the source.

Sequence of Mcl-1 protein (Q07820 whole entry): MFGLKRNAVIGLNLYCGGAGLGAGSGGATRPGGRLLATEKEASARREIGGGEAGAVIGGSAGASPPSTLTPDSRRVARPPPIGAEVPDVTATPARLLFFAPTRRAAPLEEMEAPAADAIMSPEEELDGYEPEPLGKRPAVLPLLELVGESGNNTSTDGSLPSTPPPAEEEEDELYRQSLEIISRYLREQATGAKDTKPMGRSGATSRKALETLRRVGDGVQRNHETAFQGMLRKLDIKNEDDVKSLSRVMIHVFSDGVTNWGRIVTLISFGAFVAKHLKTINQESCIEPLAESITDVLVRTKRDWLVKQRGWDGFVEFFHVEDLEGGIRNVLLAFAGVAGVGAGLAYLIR

In general, Ki refers to the dissociation constant of the complex between target and ligand, obtained from inhibition or displacement. With `C[C@H]1Cc2c(OC[C@H](C)C[C@H]3Cc4ccccc4[C@]34CC[C@@](Nc3cccc(Cl)c3)(C(=O)O)CC4)ccnc2[C@H](O)C1` (racemic) [Example 670, (1r,2′S,4S)-4-(3-chloroanilino)-2′-[(2R)-3-{[(6RS,8SR)-8-hydroxy-6-methyl-5,6,7,8-tetrahydroquinolin-4-yl]oxy}-2-methylpropyl]-2′,3′-dihydrospiro[cyclohexane-1,1′-indene]-4-carboxylic acid], the IC50 in assay [1] (Homo sapiens, NCI-H929, 48 h) was 3.6 µM. In addition, the Ki in assay [2] amounted to 0.0416 µM.

Consider `O=C(O)[C@]1(Nc2cccc(Cl)c2)CC[C@@]2(CC1)c1ccccc1CC2CC(COc1ccnc2c1CCC2)COc1ccnc2c1CCC2` (single isomer, unassigned) [Example 497, (1r,4r)-4-(3-chloroanilino)-2′-(3-[(6,7-dihydro-5H-cyclopenta[b]pyridin-4-yl)oxy]-2-{[(6,7-dihydro-5H-cyclopenta[b]pyridin-4-yl)oxy]methyl}propyl)-2′,3′-dihydrospiro[cyclohexane-1,1′-indene]-4-carboxylic acid], for which the IC50 in assay [1] is 1.22 µM. The Ki in assay [2] was 0.00134 µM.

Turning to `O=C(O)[C@]1(Nc2cccc(Cl)c2)CC[C@@]2(CC1)c1ccccc1CC2CC(COc1ccnc2c1CCC2)COc1ccnc2c1CCC2` (single isomer, unassigned) [Example 498, (1r,4r)-4-(3-chloroanilino)-2′-(3-[(6,7-dihydro-5H-cyclopenta[b]pyridin-4-yl)oxy]-2-{[(6,7-dihydro-5H-cyclopenta[b]pyridin-4-yl)oxy]methyl}propyl)-2′,3′-dihydrospiro[cyclohexane-1,1′-indene]-4-carboxylic acid], in assay [1], the IC50 is 0.436 µM. Besides, the Ki in assay [2] was found to be 0.000769 µM.

Consider `O=C(O)[C@]1(Nc2cccc(Cl)c2)CC[C@]2(CC1)C(CC(F)COc1ccnc3c1CCCC3)=Cc1ccccc12` (single isomer, unassigned) [Example 505, (1r,4r)-4-(3-chloroanilino)-2′-{2-fluoro-3-[(5,6,7,8-tetrahydroquinolin-4-yl)oxy]propyl}spiro[cyclohexane-1,1′-indene]-4-carboxylic acid], for which, in assay [1] (Homo sapiens, NCI-H929, 48 h), the IC50 was 2.38 µM. In addition, the Ki in assay [2] came out at 0.0234 µM.

In the case of `O=C(O)[C@]1(Nc2cccc(Cl)c2)CC[C@]2(CC1)C(CC(F)COc1ccnc3c1CCCC3)=Cc1ccccc12` (single isomer, unassigned) [Example 506, (1r,4r)-4-(3-chloroanilino)-2′-{2-fluoro-3-[(5,6,7,8-tetrahydroquinolin-4-yl)oxy]propyl}spiro[cyclohexane-1,1′-indene]-4-carboxylic acid], in assay [1], the IC50 is 2.79 µM. In assay [2], the Ki is 0.0492 µM.

With `C[C@@H]1CCCc2nccc(OCC(F)CC3Cc4ccccc4[C@]34CC[C@@](Nc3cccc(Cl)c3)(C(=O)O)CC4)c21` (single isomer, unassigned) [Example 507], in assay [1], the IC50 worked out at 2.24 µM. The Ki in assay [2] worked out at 0.00876 µM.

On to `C[C@@H]1CCCc2nccc(OCC(F)CC3Cc4ccccc4[C@]34CC[C@@](Nc3cccc(Cl)c3)(C(=O)O)CC4)c21` (single isomer, unassigned) [Example 508], for which, in assay [1], the IC50 amounted to 3.64 µM. Also, the Ki in assay [2] came to 0.0203 µM.

As to `C[C@@H]1CCCc2nccc(OCC(F)CC3Cc4ccccc4[C@]34CC[C@@](Nc3cccc(Cl)c3)(C(=O)O)CC4)c21` (single isomer, unassigned) [Example 509], the IC50 in assay [1] was found to be 0.999 µM. For the same compound, the Ki in assay [2] was found to be 0.0053 µM.

With `C[C@@H]1CCCc2nccc(OCC(F)CC3Cc4ccccc4[C@]34CC[C@@](Nc3cccc(Cl)c3)(C(=O)O)CC4)c21` (single isomer, unassigned) [Example 510], the IC50 in assay [1] stood at 0.252 µM. Also, in assay [2], the Ki was determined as 0.00151 µM.

With `C[C@@H]1CCCc2nccc(OCC(CF)CC3=Cc4ccccc4[C@]34CC[C@@](Nc3cccc(Cl)c3)(C(=O)O)CC4)c21` (single isomer, unassigned) [Example 514], the IC50 in assay [1] was 0.32 µM. Moreover, the Ki in assay [2] is 0.00184 µM.

In the case of `C[C@@H]1CCCc2nccc(OCC(CF)CC3=Cc4ccccc4[C@]34CC[C@@](Nc3cccc(Cl)c3)(C(=O)O)CC4)c21` (single isomer, unassigned) [Example 515], the IC50 in assay [1] was 2.39 µM. Further, in assay [2], the Ki is 0.0264 µM.

As for `C[C@@H]1CCCc2nccc(OCC(CC3=Cc4ccccc4[C@]34CC[C@@](Nc3cccc(Cl)c3)(C(=O)O)CC4)C(F)F)c21` (single isomer, unassigned) [Example 516], the IC50 in assay [1] came out at 3.86 µM. Besides, the Ki in assay [2] turned out to be 0.028 µM.

With `C[C@@H]1CCCc2nccc(OCC(CC3=Cc4ccccc4[C@]34CC[C@@](Nc3cccc(Cl)c3)(C(=O)O)CC4)C(F)F)c21` (single isomer, unassigned) [Example 517], the IC50 in assay [1] amounted to 0.55 µM. Also, in assay [2], the Ki came to 0.00498 µM.

Take `C[C@@H]1CCCc2nccc(OCC(CC3Cc4ccccc4[C@]34CC[C@@](Nc3cccc(Cl)c3)(C(=O)O)CC4)C(F)F)c21` (single isomer, unassigned) [Example 518]: the IC50 in assay [1] is 12 µM. Further, in assay [2], the Ki came to 1.26 µM.

As for `C[C@@H]1CCCc2nccc(OCC(CC3Cc4ccccc4[C@]34CC[C@@](Nc3cccc(Cl)c3)(C(=O)O)CC4)C(F)F)c21` (single isomer, unassigned) [Example 519], in assay [1], the IC50 is 0.202 µM. Also, the Ki in assay [2] worked out at 0.000909 µM.

Take `C[C@@H]1CCCc2nccc(OCC(CC3Cc4ccccc4[C@]34CC[C@@](Nc3cccc(Cl)c3)(C(=O)O)CC4)C(F)F)c21` (single isomer, unassigned) [Example 520]: in assay [1], the IC50 came out at 10.4 µM. In assay [2], the Ki is 0.0914 µM.

Turning to `C[C@@H]1CCCc2nccc(OCC(CC3Cc4ccccc4[C@]34CC[C@@](Nc3cccc(Cl)c3)(C(=O)O)CC4)C(F)F)c21` (single isomer, unassigned) [Example 521], in assay [1], the IC50 amounted to 0.986 µM. Further, in assay [2], the Ki came to 0.0323 µM.

In the case of `O=C(O)[C@]1(Nc2cccc(Cl)c2)CC[C@]2(CC1)C(CC(COc1ccnc3ccsc13)Cc1ccccc1)=Cc1ccccc12` (single isomer, unassigned) [Example 559, (1r,4r)-2′-{2-benzyl-3-[(thieno[3,2-b]pyridin-7-yl)oxy]propyl}-4-(3-chloroanilino)spiro[cyclohexane-1,1′-indene]-4-carboxylic acid], the IC50 in assay [1] (Homo sapiens, NCI-H929, 48 h) amounted to 30 µM. Moreover, the Ki in assay [2] amounted to 0.073 µM.

As to `C[C@@H](COc1ccnc2c1CCCCC2)C[C@H]1Cc2ccccc2[C@]12CC[C@@](Nc1cccc(Cl)c1)(C(=O)O)CC2` [Example 633, (1r,2′S,4S)-4-(3-chloroanilino)-2′-{(2R)-2-methyl-3-[(6,7,8,9-tetrahydro-5H-cyclohepta[b]pyridin-4-yl)oxy]propyl}-2′,3′-dihydrospiro[cyclohexane-1,1′-indene]-4-carboxylic acid], the IC50 in assay [1] (Homo sapiens, NCI-H929, 48 h) was determined as 0.371 µM. For the same compound, the Ki at Mcl-1 protein is 0.0053 µM.

With `C[C@@H](COc1ccnc2c1CCCCC2O)C[C@H]1Cc2ccccc2[C@]12CC[C@@](Nc1cccc(Cl)c1)(C(=O)O)CC2` (stereo partly drawn) [Example 634, (1r,2′S,4S)-4-(3-chloroanilino)-2′-{(2R)-3-[(9-hydroxy-6,7,8,9-tetrahydro-5H-cyclohepta[b]pyridin-4-yl)oxy]-2-methylpropyl}-2′,3′-dihydrospiro[cyclohexane-1,1′-indene]-4-carboxylic acid], the IC50 in assay [1] (Homo sapiens, NCI-H929, 48 h) was determined as 4.23 µM. In addition, the Ki at Mcl-1 protein came to 0.0868 µM.

For the compound `C[C@@H](COc1ccnc2c1CCCO2)C[C@H]1Cc2ccccc2[C@]12CC[C@@](Nc1cccc(Cl)c1)(C(=O)O)CC2` [Example 635, (1r,2′S,4S)-4-(3-chloroanilino)-2′-{(2R)-3-[(3,4-dihydro-2H-pyrano[2,3-b]pyridin-5-yl)oxy]-2-methylpropyl}-2′,3′-dihydrospiro[cyclohexane-1,1′-indene]-4-carboxylic acid], the IC50 in assay [1] (Homo sapiens, NCI-H929, 48 h) was 4.59 µM. In addition, the Ki on Mcl-1 protein amounted to 0.0448 µM.

On to `CC1CCc2nccc(OC[C@H](C)C[C@H]3Cc4ccccc4[C@]34CC[C@@](Nc3cccc(Cl)c3)(C(=O)O)CC4)c2C1` (stereo partly drawn) [Example 651, (1r,2′S,4S)-4-(3-chloroanilino)-2′-{(2R)-2-methyl-3-[(6-methyl-5,6,7,8-tetrahydroquinolin-4-yl)oxy]propyl}-2′,3′-dihydrospiro[cyclohexane-1,1′-indene]-4-carboxylic acid], for which the IC50 in assay [1] (Homo sapiens, NCI-H929, 48 h) was 1.26 µM. Moreover, the Ki at Mcl-1 protein stood at 0.0179 µM.

Turning to `C[C@@H](COc1ccnc2c1CC(C)(C)CC2)C[C@H]1Cc2ccccc2[C@]12CC[C@@](Nc1cccc(Cl)c1)(C(=O)O)CC2` [Example 652, (1r,2′S,4S)-4-(3-chloroanilino)-2′-{(2R)-3-[(6,6-dimethyl-5,6,7,8-tetrahydroquinolin-4-yl)oxy]-2-methylpropyl}-2′,3′-dihydrospiro[cyclohexane-1,1′-indene]-4-carboxylic acid], the IC50 in assay [1] (Homo sapiens, NCI-H929, 48 h) was determined as 4.71 µM. On Mcl-1 protein, the Ki stood at 0.0203 µM.

As to `C[C@@H](COc1ccnc2c1CCC[C@@H]2O)C[C@H]1Cc2ccccc2[C@]12CC[C@@](Nc1cccc(Cl)c1)(C(=O)O)CC2` [Example 669, (1r,2′S,4S)-4-(3-chloroanilino)-2′-[(2R)-3-{[(8S)-8-hydroxy-5,6,7,8-tetrahydroquinolin-4-yl]oxy}-2-methylpropyl]-2′,3′-dihydrospiro[cyclohexane-1,1′-indene]-4-carboxylic acid], the IC50 in assay [1] (Homo sapiens, NCI-H929, 48 h) turned out to be 1.52 µM. Also, the inhibition constant Ki on Mcl-1 protein was 0.0323 µM.

The values are drawn from patent US20240150293A1, “SPIROCYCLOHEXANE DERIVATIVES, PHARMACEUTICAL COMPOSITIONS CONTAINING THEM AND THEIR USES AS ANTI-APOPTOTIC INHIBITORS” (LES LABORATOIRES SERVIER, priority 2021, published 2024).
